# In patent US20240327334A1, “Covalent Inhibitors As Antiviral Agents” (Enanta Pharmaceuticals, Inc., priority 2022, published 2024):
# Target: SARS-CoV-2 Papain-like (PLpro) protease (Severe acute respiratory syndrome coronavirus 2, UniProt P0DTD1)
# Experiment: SARS-CoV-2 Papain-like (PLpro) protease biochemical enzyme inhibition assay (ubiquitin-fluorophore substrate, Ub-R110)
# Settings: Ub-R110 substrate; run in duplicate; read-out: PLpro IC50
row,SMILES,IC50 [nM]
1,NC(=O)N1CC[C@@H]1CNC(=O)C(=O)NCc1ccccc1C(=O)NC1(c2cccc3ccccc23)CC1 [Example 499],1000 to 10000
2,NC(=O)N1CC[C@H]1CNC(=O)C(=O)NCc1ccccc1C(=O)NC1(c2cccc3ccccc23)CC1 [Example 501],1000 to 10000
3,N#CN1CC[C@H](CNC(=O)C(=O)NCc2ccccc2C(=O)NC2(c3cccc4ccccc34)CC2)C1 [Example 502],100 to 1000
4,NC(=O)N1CC[C@H](CNC(=O)C(=O)NCc2ccccc2C(=O)NC2(c3cccc4ccccc34)CC2)C1 [Example 503],1000 to 10000
5,NC(=O)N1CCC[C@H]1CNC(=O)C(=O)NCc1ccccc1C(=O)NC1(c2cccc3ccccc23)CC1 [Example 505],1000 to 10000
6,CC(C)(C)OC(=O)N1CCC[C@@H]1CNC(=O)C(=O)NCc1ccccc1C(=O)NC1(c2cccc3ccccc23)CC1 [Example 506],> 10000
7,CC(C)(C)OC(=O)N1CC[C@@H](CNC(=O)C(=O)NCc2ccccc2C(=O)NC2(c3cccc4ccccc34)CC2)C1 [Example 507],> 10000
8,N#CN1CCC[C@@H]1CNC(=O)C(=O)NCc1ccccc1C(=O)NC1(c2cccc3ccccc23)CC1 [Example 508],100 to 1000
9,COc1cc(C2(NC(=O)c3ccccc3CNC(=O)C(=O)NC[C@@H]3CCCN3)CC2)cc2cn(C3CC3)nc12 [Example 511],1000 to 10000
10,COc1cc(C2(NC(=O)c3ccccc3CNC(=O)C(=O)NC[C@@H]3CCN3)CC2)cc2cn(C3CC3)nc12 [Example 512],1000 to 10000
11,COc1cc(C2(NC(=O)c3ccccc3CNC(=O)C(=O)NCC(O)C(F)(F)F)CC2)cc2cn(C3CC3)nc12 (stereo not shown) [Example 513],> 10000
12,COc1cc(C2(NC(=O)c3ccccc3CNC(=O)C(=O)NC[C@@H]3CCN3C#N)CC2)cc2cn(C3CC3)nc12 [Example 516],< 100
13,O=C(C#CCNC(=O)C(=O)NCc1ccccc1C(=O)NC1(c2ccc3ccccc3c2)CC1)Nc1ccccc1 [Example 521],100 to 1000
14,O=C(C#CCNC(=O)C(=O)NCc1ccccc1C(=O)NC1(c2cc(-c3cccs3)cc(C(F)(F)F)c2)CC1)NC1CC1 [Example 522],100 to 1000
15,O=C(NCC#CC1CC1)C(=O)NCc1ccccc1C(=O)NC1(c2ccc3ccccc3c2)CC1 [Example 523],> 10000
16,C#CCNC(=O)C(=O)NCc1ccccc1C(=O)NC1(c2cccc3c2ccn3C)CC1 [Example 530],100 to 1000
17,C[C@@H](C#Cc1nccs1)NC(=O)C(=O)NCc1ccccc1C(=O)NC1(c2cccc3c2ccn3C)CC1 [Example 531],< 100
18,Cn1ccc2c(C3(NC(=O)c4ccccc4CNC(=O)C(=O)NCC#N)CC3)cccc21 [Example 533],100 to 1000
19,O=C(C#CCNC(=O)C(=O)NCc1ccccc1C(=O)NC1(c2cc(-c3cnn(C4CC4)c3)cc(C(F)(F)F)c2)CC1)NC1CC1 [Example 534],100 to 1000
20,N#CCNC(=O)C(=O)NCc1ccccc1C(=O)NC1(c2ccc(-c3ccc(F)cc3)cc2)CC1 [Example 542],> 10000
21,N#CCNC(=O)C(=O)NCc1ccccc1C(=O)NC1(c2ccc(Br)cc2)CC1 [Example 544],1000 to 10000
22,COC(=O)/C=C/CN(C)C(=O)C(=O)NCc1ccccc1C(=O)N[C@H](C)c1cccc2ccccc12 [Example 546],1000 to 10000
23,COC(=O)/C=C/CNC(=O)C(=O)N(C)Cc1ccccc1C(=O)N[C@H](C)c1cccc2ccccc12 [Example 547],> 10000
24,CC(C)(C)OC(=O)NNC(=O)/C=C/CNC(=O)C(=O)NCc1ccccc1C(=O)NC1(c2cccc3ccccc23)CC1 [Example 548],100 to 1000
25,C[C@@H](NC(=O)c1ccccc1CNC(=O)C(=O)NC/C=C/C(=O)N1CCCNC(=O)C1)c1cccc2ccccc12 [Example 549],100 to 1000
26,C[C@@H](NC(=O)c1ccccc1CNC(=O)C(=O)NC/C=C/C(=O)N1CC[C@H](C#N)C1)c1cccc2ccccc12 [Example 550],> 10000
27,C[C@@H](NC(=O)c1ccccc1CNC(=O)C(=O)NC/C=C/C(=O)NC(C)(C)CO)c1cccc2ccccc12 [Example 551],1000 to 10000
28,CCCOC(=O)/C=C/CNC(=O)C(=O)NCc1ccccc1C(=O)NC1(c2cccc3ccccc23)CC1 [Example 552],100 to 1000
